Earlier results as cited in the CATMoS acute toxicity set (Mansouri et al. 2021).
Where “and” joins values, the source holds several entries; their conditions need not be identical. Equal values may be shown once.

Experiment: rat acute oral toxicity
Details: in vivo
Text: […]The data set underlying the modeling effort for this project was initially compiled by NICEATM and U.S. EPA’s CCTE. Briefly, LD50 data were collected from rat acute oral systemic toxicity tests, including limit tests, ranges/confidence intervals, and discrete LD50 values. The full data set included 21,200 LD50 entries for 15,688 substances. […] Data were reviewed to ensure that LD50 values with obvious errors in the extracted data such as unit conversion errors (e.g., comma and decimal separator misplacements) were either fixed or removed. After this review, 16,209 LD50 values remained. Many of the chemicals represented had multiple LD50 entries, requiring that a single representative value per Chemical Abstracts Service Registry Number (CASRN) identifier be defined to facilitate modeling efforts. Based on ATWG feedback and to define the representative LD50 as a protective value while accounting for the distribution across multiple LD50s, the median of the lowest quartile was computed using only discrete LD50 values (omitting limit test data and range and confidence interval data). A detailed summary of the data compilation is available online on the NICEATM webpage dedicated to the collaborative modeling project (NTP 2020).
[…][…] For categorical designations, limit test and range/confidence interval LD50 data were integrated wherever possible. As such, the number of chemicals with end point values/calls varies across the modeling end points (Table 3) based on whether chemicals had representative LD50 values and/or other data. If a chemical had both, the representative value was used to determine categorical calls rather than limit test data. Some data were useable only for certain end points and categories depending on the thresholds. For example, ranges that spanned multiple hazard categories were considered only for the binary (very toxic/nontoxic) end points and omitted from rendering a determination for hazard category assignment.
[…]The final data set comprising 11,992 chemicals was split into training and evaluation sets […], respectively. This process was performed semirandomly by ordering chemicals based on the five end points (categorical and continuous LD50 values) and partitioning every fourth record into the evaluation set accordingly. This approach was taken to ensure an equivalent distribution of the LD50 values and the different hazard categories between the training and the evaluation sets without supervised sampling of the chemicals based on structures (Figure 1A). The sources of the chemical structures were also kept equivalent between the two sets, with chemical structures obtained from DSSTox, being the highest quality, representing over 75% of each set (Figure 1B).

SMILES	LD50
N#Cc1cc(Cl)c2nc(C(F)(F)F)[nH]c2c1	2.4 mg/kg
OCCI	50 mg/kg
CCOC(=O)C1(CCCCCCOc2ccc(Cl)cc2)CO1 (stereo not drawn)	250 mg/kg
CN(C)N=Nc1ccc(I)cc1	574 mg/kg
CS(=O)(=O)F	2 mg/kg
CCOC(=O)CC(=O)OC(Br)C(Cl)(Cl)Cl (stereo not drawn)	2600 mg/kg
Cc1c(Cl)ccc(C(C)c2ccccc2)c1C (stereo not drawn)	2130 mg/kg
Nc1nc(N)nc(-c2cc(Cl)ccc2Cl)n1	2900 mg/kg
C=CCSSCC=C	260 mg/kg
CCCOc1ccc(C=CC(=S)OCC)cc1OC	1010 mg/kg
CC[C@]1(CO)CCCN2CCc3c([nH]c4ccccc34)[C@@H]21	1200 mg/kg
CC(N)CCN (stereo not drawn)	1350 mg/kg
N#CCc1ccc(Cl)cc1	50 mg/kg
COC(=O)c1cccc(C)c1O	3840 mg/kg
O=C(O)Cc1c(-c2ccccc2)c(-c2ccccc2)nn1-c1ccccc1	13 mg/kg
NC(Cl)c1nc(Cl)c(Cl)c(Cl)c1Cl (stereo not drawn)	1190 mg/kg
CCC(C)N(C(=O)c1c(Cl)cccc1Cl)C(C)CC (stereo not drawn)	1450 mg/kg
N#CC(CCN1CCC(C(=O)O)(c2ccccc2)CC1)(c1ccccc1)c1ccccc1	149 mg/kg
N=C(N)SCc1ccccc1	27 mg/kg
Cc1c(COC(=O)[C@@H]2[C@H](/C=C(\Cl)C(F)(F)F)C2(C)C)cccc1-c1ccccc1 (racemic)	54.5 mg/kg
CN(SSC(C)(C)C)C(=O)ON=C1SC(C)(C)C(=O)N1C	299 mg/kg
CC(C)[C@@]1(NC(=O)[C@@H]2C[C@@H]3c4cccc5[nH]cc(c45)C[C@H]3N(C)C2)O[C@@]2(O)[C@@H]3CCCN3C(=O)[C@H](Cc3ccccc3)N2C1=O	2640 mg/kg
Clc1ccc(CSC(Cn2ccnc2)c2ccc(Cl)cc2Cl)cc1 (stereo not drawn)	1740 mg/kg
COCCOC(=O)c1ccccc1C(=O)OCCOC	4400 mg/kg
CCCCCl	2670 mg/kg

SMILES	LD50
CCC(CC)C(=O)O	2200 mg/kg
CCCCC(CC)COC(=O)c1ccccc1C(=O)OCc1ccccc1 (stereo not drawn)	60000 mg/kg
COB1OB(OC)OB(OC)O1	5160 mg/kg
C=CCOC(=O)C=Cc1ccccc1	1520 mg/kg
O=S(=O)(O)OCCOc1cc(Cl)c(Cl)cc1Cl	720 mg/kg
COC(CNCc1ccccc1)c1cccc(C(F)(F)F)c1 (stereo not drawn)	1720 mg/kg
Cc1c([N+](=O)[O-])cc(N)cc1[N+](=O)[O-]	959 mg/kg
CCN1CN(CO)C(=O)N(CO)C1	8220 mg/kg
CCCCOCC	1870 mg/kg
CCCc1cc(C(N)=S)ccn1	1320 mg/kg
CC(O)C1Sc2ccccc2N(CCCN(C)C)C1c1ccccc1 (stereo not drawn)	800 mg/kg
CC(C(=O)O)c1ccc2c(c1)CC(C(C)C)C2 (stereo not drawn)	1500 mg/kg
CC(=O)CCCOC(C)=O	6080 mg/kg
CC1=CCC2CC(CC3(CCC(C)C(C(C)C)O3)O2)OC(=O)C2C=C(C)C(O)C3OCC(=CC=CC(C)C1)C23O (stereo not drawn)	2470 mg/kg
OC1CCCc2ccccc21 (stereo not drawn)	1620 mg/kg
CCNC1C2CCC(C2)C1c1ccccc1 (stereo not drawn)	83 mg/kg
COP(=O)(OC)OC(=C(Cl)Br)c1ccc(Cl)cc1Cl	107 mg/kg
O=C1c2ccccc2S(=O)(=O)N1CCCCNC[C@H]1CCc2ccccc2O1	324 mg/kg
C(=N\C(/N=C/c1ccco1)c1ccco1)/c1ccco1	400 mg/kg
O=C(O)c1cc(N=Nc2ccc(S(=O)(=O)O)cc2)ccc1O	14000 mg/kg
Cc1cc(Br)ccc1-n1c(C)nc2ccccc2c1=O	240 mg/kg
O=[N+]([O-])c1cc(C(F)(F)F)ccc1Cl	1080 mg/kg
ClCc1ccc(CCl)cc1	1280 mg/kg
CC1(C)N=C(N)N=C(N)N1c1ccccc1	447 mg/kg
CCc1ccc(OCC=C(C)CCC=C(C)C)cn1	800 mg/kg

SMILES	LD50
CN1Cc2c(N)cccc2C(c2ccccc2)C1 (stereo not drawn)	267 mg/kg and 430 mg/kg
COP(=O)(OC)Oc1ccc([N+](=O)[O-])c(Cl)c1	10 mg/kg
C=COCCOCCO	4930 mg/kg
CC(C)Oc1cccc(C2CC(=O)NC2=O)c1 (stereo not drawn)	2400 mg/kg
CNC(=O)Oc1ccc(C)c(C)c1	290 mg/kg
COP(=O)(OC)OC(=CBr)c1ccc(Cl)cc1Cl	225 mg/kg
O=C(O)CN(CCOCCOCCN(CC(=O)O)CC(=O)O)CC(=O)O	4000 mg/kg and 3590 mg/kg
CC(C)(C)C(CS(C)(=O)=O)=NO	734 mg/kg
C=CCOC(=O)CC(SP(=S)(OC)OC)C(=O)OCC(C)SP(=S)(OC)OC (stereo not drawn)	762 mg/kg
O=C(NC[P+](CO)(CO)CO)NC[P+](CO)(CO)CO	245 mg/kg
O=C(Nc1nnc(CCN2c3ccccc3Sc3ccccc32)s1)c1ccccc1	3220 mg/kg
CCN(CC)CCNC(=O)c1cc(Cl)c(N)cc1OCc1ccccc1	220 mg/kg
CCN(CC)c1nc(NC(C)C)nc(OC)n1	885 mg/kg
c1ccc([I+]c2ccccc2)cc1	60 mg/kg
CN1CC[C@]23CCCC[C@H]2[C@H]1Cc1ccc(O)cc13	150 mg/kg
CCCSC(=O)Oc1c(C(C)CC)cc([N+](=O)[O-])cc1[N+](=O)[O-] (stereo not drawn)	584 mg/kg
O=[N+]([O-])C(Br)(Br)CO	29.1 mg/kg
CCN(CC)CCN	2830 mg/kg
CC(C)=CCl	4460 mg/kg
CC(=O)OC(C)C[N+](C)(C)C (stereo not drawn)	750 mg/kg
O=C1c2ccccc2C(=O)N1CCc1ccccn1	860 mg/kg
O=C1c2cc(Cl)ccc2OC2CCON12 (stereo not drawn)	1550 mg/kg
CN1CCN(C(=O)Cn2c(=O)sc3ccc(Cl)cc32)CC1	640 mg/kg
C=CCc1ccccc1	5540 mg/kg
CCCCC(CC)CCl (stereo not drawn)	7340 mg/kg

SMILES	LD50
O=c1ccn(C2OC(COP(=O)(O)O)C(O)C2O)c(=O)[nH]1 (stereo not drawn)	12000 mg/kg
COC(=O)Nc1cccc(OC(=O)Nc2cccc(C)c2)c1	4000 mg/kg
C=CCNc1nc(NCC=C)nc(N(CCCCCCN(c2nc(NCC=C)nc(NCC=C)n2)C2CC(C)(C)NC(C)(C)C2)C2CC(C)(C)NC(C)(C)C2)n1	4010 mg/kg
CCCCCCCCCCOC(=O)Cc1ccc(N(CCCl)CCCl)cc1	150 mg/kg
CCN1C[C@H]2CN(C)C[C@@H](C1)C2OC(=O)c1ccc(Cl)cc1 (stereo partly drawn)	383 mg/kg
Cc1cccc(C)c1NC(=O)CN1CCCC1=O	1180 mg/kg
C=CCNC(=O)ON=C1SCOC1C (stereo not drawn)	453 mg/kg
COc1cccc(O)c1	597 mg/kg
ClC1=C(Cl)[C@]2(Cl)[C@@H]3[C@@H](Cl)[C@H](Cl)[C@@H](Cl)[C@@H]3[C@@]1(Cl)C2(Cl)Cl (racemic)	500 mg/kg
CN1CCN(CCCCCCCCNC(=O)Oc2ccc3c(c2)C2(C)CCN(C)C2N3C)CC1 (stereo not drawn)	27.7 mg/kg
O=S(=O)(O)c1cccc(Nc2nc(Nc3ccc(C=Cc4ccc(Nc5nc(Nc6cccc(S(=O)(=O)O)c6)nc(N(CCO)CCO)n5)cc4S(=O)(=O)O)c(S(=O)(=O)O)c3)nc(N(CCO)CCO)n2)c1	1960 mg/kg
CCOC(CC(OCC)OCC)OCC	1610 mg/kg
OC(c1ccccc1)(c1ccccc1)C1CCNCC1	984 mg/kg
NNc1ccc(N(CCO)CCO)nn1	1800 mg/kg
Cc1cc(S(=O)(=O)O)c(N)cc1Cl	12300 mg/kg
CCO[Si](C)(CCCCN)OCC	6500 mg/kg
CN(CCCn1cnc2c1c(=O)n(C)c(=O)n2C)c1ccccc1	1640 mg/kg
ClCc1cccc(Oc2ccccc2)c1	1220 mg/kg
C=C(C)C(=O)OCCO	5620 mg/kg
CCC1(c2ccccc2)C(=O)N=C(O)NC1=O (stereo not drawn)	150 mg/kg
C1COCCO1	4200 mg/kg
CNC(C)Cc1ccc(Cl)cc1 (stereo not drawn)	110 mg/kg
COc1ccc(NC(=O)CC(C)=O)cc1	1700 mg/kg
CC1OC1(C)C (stereo not drawn)	2640 mg/kg
CN(C)c1ccc(N=Nc2ccc(S(=O)(=O)O)cc2)cc1	60 mg/kg

SMILES	LD50
S=c1[nH]n(-c2ccccc2)c(=S)s1	763 mg/kg
CCCCOCCCC	7400 mg/kg
C1CCC2OCCOCCOCCOC3CCCCC3OCCOCCOCCOC2C1 (stereo not drawn)	75 mg/kg
C=CCNP(=O)(OC=C(Cl)Cl)OCCCl (stereo not drawn)	25 mg/kg
CNC(N)=S	50 mg/kg
O=C(O)Cc1ccc2c(c1)C(=O)c1ccccc1CN2	810 mg/kg
C1CSCCO1	2830 mg/kg
CC=Cc1ccc(O)c(OC)c1	1560 mg/kg
CN(c1ccc(Cl)cc1Cl)c1c([N+](=O)[O-])cc([N+](=O)[O-])cc1C(F)(F)F	4.5 mg/kg
O=c1[nH]c2ccccc2c(=O)n1CCCN1CCN(c2cccc(Cl)c2)CC1	7650 mg/kg
CNC(=O)c1cc(Oc2ccc(N)c(F)c2)ccn1	500 mg/kg
CCOC(C1=NCC(C)(C)N1)c1ccccc1 (stereo not drawn)	510 mg/kg
CCc1c(C)[nH]c2c1C(=O)C(CN1CCOCC1)CC2 (stereo not drawn)	261 mg/kg
CCC(C)c1cnc2nc(N)nc(N)c2c1C (stereo not drawn)	100 mg/kg
c1ccc([C@H]2CN3CCSC3=N2)cc1	480 mg/kg
O=C1[C@H]2CCCC[C@H]2C(=O)N1CCCCN1CCN(c2nsc3ccccc23)CC1	870 mg/kg
CC1C(C)(C)C2=C(C(=O)CCC2)C1(C)C (stereo not drawn)	2900 mg/kg
COc1cc(OC)nc(NC(=O)NS(=O)(=O)c2cc(NC=O)ccc2C(=O)N(C)C)n1	3880 mg/kg
ClC1=C(Cl)C2(Cl)C3C(Br)C=CC3C1(Cl)C2(Cl)Cl (stereo not drawn)	1040 mg/kg
NC(=O)COc1ccc(Cl)cc1Cl	1200 mg/kg
CCOC(=O)C1=CN(C(=O)CC)C2CCCC(C)N2C1=O (stereo not drawn)	2970 mg/kg
CCCOC/C(=N\c1ccc(Cl)cc1C(F)(F)F)n1ccnc1	715 mg/kg
CCc1c(C)nc2c(C)cccn2c1=O	820 mg/kg
